The values below come from patent US20140220680A1, “XENO-FREE AND A FEEDER FREE SELF-RENEWAL EXTRACELLULAR MATRIX FOR LONG-TERM MAINTENANCE OF UNDIFFERENTIATED HUMAN PLURIPOTENT STEM CELLS AND METHOD OF SYNTHESIZING THE SAME” (ROYAN RESEARCH, priority 2013, published 2014).

For assay [1], the target named is Rho-associated Coiled Kinase (ROCK). As to conditions: stated with the concentration used; no test described; cited from earlier work.
The subject of a further assay is Royan H5 hESCs. Put plainly: Plating efficiency (PE) of hESC clumps on coated plates, day 7. The format is cell-based, human. As for the experimental part: The Matrigel (MG) was used as a positive control in all experiments. In the first phase, with respect to table 1, the Royan H5 cell line was cultured in CM coated plates (six-well, TPP, 92006). The CM was prepared by either 24 h or 72 h incubation of neurobasal medium (Invitrogen, 21103049) supplemented with L-Gln, β-ME, NEAAs and ITS on human dermal fibroblast (HDFs) feeder layers. The HDFs were inactivated by mitomycin C for 2 h. The mitomycin C was used with a concentration of 10 μg/ml (Sigma-Aldrich, M0503). The feeder cells were cultured at high densities and at low densities in 25 cm^2 T flasks (TPP, 90025) in 4 ml of conditioned medium (160 μl/cm^2). The high density comprised of 50000 cells/cm^2 and the low density comprised of 5000 cells/cm^2. The plates were exposed to CM for either 5 min or 150 min while coating. […]
The plating efficiency (PE) and grading morphology were conducted in nine replications. […] Results were expressed as mean±standard deviation (SD). […] The PE (based on the ratio of undifferentiated […] colonies formed per initially seeded hESCs and hiPSCs clumps) was calculated under phase contrast inverted microscope (CKX 41, Olympus). The cloning efficiency (based on the ratio of ALP-positive colonies formed per initially seeded hESCs and hiPSCs single cells) was calculated by ImageJ software version 1.4. […]

In the case of Y-27632 dihydrochloride monohydrate, the EC50 in assay [1] was 800 nM. This substance came in with a plating efficiency increase in the assay on Royan H5 hESCs (ROCK inhibitor in MG compared to ROCK inhibitor in culture medium only) of 1.5 to 2 fold. In the assay on Royan H5 hESCs (ROCKi added to ECM (MG) vs added to medium), the “plating and cloning efficiency” value was “increased plating and cloning efficiency”.
